Test systems include 786-0; A549; ACHN; CCRF-CEM; COLO 205; HCC 2998; HCT-116; HT-29; MDA-MB-231; MOLT-4; NCI-H522; OVCAR-4; OVCAR-5; OVCAR-8; SF-295; SNB-75; TK-10; UACC-257; UO-31; DU-145.
Holding throughout (assay): growth of human tumour cells (NCI), 48 h

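Values below derive from 48-hour exposures of cells grown in 96-well plates, with endpoints linearly interpolated between the two concentrations bracketing the appropriate inhibition level. Abbreviation: GI50, concentration required for 50% inhibition of growth.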 Activity calls are given as the source filed them. Rule as the data show it: active = GI50 up to about 1.1 µM and inactive = higher.

Regarding `Cc1cc2nc3n(c2cc1C)C(c1c(F)cccc1F)SC3` (stereo not given), the GI50 in the test with 786-0 is 19.3 µM (inactive); in the test with A549, 23.7 µM (inactive); in the test on ACHN, 17.4 µM (inactive); in the test with CCRF-CEM it was 19.4 µM (inactive); with COLO 205, 20.7 µM (inactive); in the test on HCC 2998, 21.2 µM (inactive). In addition, the GI50 in the test with HCT-116 is 14.1 µM (inactive); in the test on HT-29 it was 18.5 µM (inactive); with MDA-MB-231, 17.9 µM (inactive); in the test on MOLT-4, 13.7 µM (inactive); with NCI-H522 it was 21.3 µM (inactive); in the test with OVCAR-4, 22.9 µM (inactive). For the same compound, the GI50 in the test with OVCAR-5 was 19.2 µM (inactive); with OVCAR-8, 33.3 µM (inactive); in the test on SF-295, 22.3 µM (inactive); in the test with SNB-75, 11.6 µM (inactive); in the test on TK-10, 46.8 µM (inactive); in the test on UACC-257 it was 30.7 µM (inactive). Moreover, in the test on UO-31, the GI50 was > 10 µM (inactive).

In the case of `CN1C(=O)C(=O)N2c3ccc(Cl)cc3C3(c4ccccc4)N=CC12O3` (stereo not given), the GI50 is 6.95 µM (inactive) with 786-0; 10.8 µM (inactive) in the test on A549; 4.7 µM (inactive) in the test on ACHN; 3.03 µM (inactive) with CCRF-CEM; 4.02 µM (inactive) in the test on COLO 205; 14.7 µM (inactive) in the test with HCC 2998. In addition, the GI50 is 3.9 µM (inactive) with HCT-116; 4.55 µM (inactive) in the test with HT-29; 3.07 µM (inactive) in the test on MOLT-4; 2.4 µM (inactive) in the test on NCI-H522; 2.11 µM (inactive) with OVCAR-4; 6.93 µM (inactive) in the test with OVCAR-5. For the same compound, the GI50 in the test with OVCAR-8 is 3.13 µM (inactive); in the test with SF-295, 11.1 µM (inactive); in the test with SNB-75, 3.6 µM (inactive); in the test with TK-10, 5.45 µM (inactive); in the test on UACC-257, 5.79 µM (inactive); in the test with UO-31, 4.1 µM (inactive).

As for `Cc1ccc2nc(-c3ccc(N4C(=O)C(Cl)C4c4ccc(Cl)cc4)cc3)sc2c1` (stereo not given), the GI50 is 21.9 µM (inactive) in the test with 786-0; 17.3 µM (inactive) with A549; 22.4 µM (inactive) in the test on ACHN; 7.94 µM (inactive) with CCRF-CEM; 14.6 µM (inactive) in the test on COLO 205; 27.2 µM (inactive) with DU-145. The GI50 in the test with HCT-116 is 21.6 µM (inactive); in the test on HT-29, 1.95 µM (inactive); in the test on MDA-MB-231, 13.5 µM (inactive); with OVCAR-4, 1.95 µM (inactive); in the test on OVCAR-5, 18.4 µM (inactive); in the test with OVCAR-8 it was 28.5 µM (inactive). In addition, the GI50 is 15.1 µM (inactive) with SF-295, 16.4 µM (inactive) in the test with TK-10, 25.1 µM (inactive) in the test on UACC-257 and 21.4 µM (inactive) in the test on UO-31.

With `N#Cc1[nH]c(=S)[nH]c1N`, the GI50 in the test on 786-0, in the test on A549, with ACHN, in the test with CCRF-CEM, with COLO 205 and in the test with DU-145 was > 100 µM (inactive) in each case. In addition, the GI50 in the test on HCC 2998, in the test with HCT-116, in the test on HT-29, in the test with NCI-H522, with OVCAR-4 and in the test on OVCAR-5 was > 100 µM (inactive) throughout. For the same compound, the GI50 in the test with OVCAR-8, in the test on SF-295, in the test with SNB-75, in the test with TK-10, in the test with UACC-257 and in the test with UO-31 was > 100 µM (inactive) each time.

Consider `COc1ccc(-c2c(C#N)c(S)n(NS(=O)(=O)c3ccc(C)cc3)c(=O)c2C#N)cc1`, for which the GI50 was 15.6 µM (inactive) in the test on 786-0; 27.5 µM (inactive) in the test on A549; 16.4 µM (inactive) in the test on ACHN; 4.06 µM (inactive) in the test with CCRF-CEM; 18.2 µM (inactive) in the test with COLO 205; 30.3 µM (inactive) in the test on HCC 2998. Besides, the GI50 was 14.4 µM (inactive) in the test with HCT-116; 31.6 µM (inactive) with HT-29; 17.8 µM (inactive) with MDA-MB-231; 7.06 µM (inactive) in the test with MOLT-4; 14.8 µM (inactive) in the test on NCI-H522; 23.7 µM (inactive) with OVCAR-4. For the same compound, the GI50 was 16.7 µM (inactive) in the test on OVCAR-5; 20.2 µM (inactive) with OVCAR-8; 30 µM (inactive) with SF-295; 30.5 µM (inactive) in the test with SNB-75; 32.4 µM (inactive) with TK-10; 32 µM (inactive) in the test on UACC-257.

For `COc1ccc(-c2ncn(C[Si](C)(C)C)c2-c2ccc(OC)cc2)cc1`, the GI50 was 5.15 µM (inactive) in the test on 786-0; 4.31 µM (inactive) in the test on A549; 7.55 µM (inactive) with ACHN; 2.54 µM (inactive) in the test on COLO 205; 3.17 µM (inactive) in the test with HCC 2998; 2.92 µM (inactive) with HCT-116. Further, the GI50 with HT-29 was 2.84 µM (inactive); with MDA-MB-231 it was 12.9 µM (inactive); with MOLT-4 it was 0.863 µM (active); in the test with NCI-H522 it was 4.28 µM (inactive); in the test with OVCAR-4 it was 7.82 µM (inactive); in the test with OVCAR-5 it was 5.02 µM (inactive). The GI50 in the test with OVCAR-8 is 7.06 µM (inactive); in the test on SF-295 it was 4.24 µM (inactive); in the test with SNB-75, 13.1 µM (inactive); in the test on TK-10 it was 7.24 µM (inactive); with UACC-257 it was 4.93 µM (inactive); in the test with UO-31 it was 2.28 µM (inactive).

`O=C(CC(C(=O)c1ccsc1)c1ccc2c(c1)OCO2)c1ccccc1` (stereo not given): the GI50 with 786-0 is > 100 µM (inactive); with A549, 8.17 µM (inactive); with ACHN, > 100 µM (inactive); in the test with CCRF-CEM, > 100 µM (inactive); in the test on COLO 205, > 100 µM (inactive); in the test on DU-145, > 100 µM (inactive). The GI50 in the test with HCC 2998 was > 100 µM (inactive); in the test on HCT-116, > 100 µM (inactive); in the test on HT-29, > 100 µM (inactive); in the test with MOLT-4, > 100 µM (inactive); in the test on NCI-H522, 59 µM (inactive); in the test on OVCAR-4, > 100 µM (inactive). Besides, the GI50 with OVCAR-5, in the test with OVCAR-8, in the test with SF-295, in the test on SNB-75, in the test with TK-10 and with UACC-257 was > 100 µM (inactive) in each case. For the same compound, in the test on UO-31, the GI50 was > 100 µM (inactive).

As for `CCOC(=N)CC(=O)Nc1ccccc1CC`, the GI50 was > 100 µM (inactive) with 786-0; > 100 µM (inactive) in the test on A549; > 100 µM (inactive) with ACHN; > 100 µM (inactive) in the test on CCRF-CEM; > 100 µM (inactive) in the test with COLO 205; 98.9 µM (inactive) in the test on HCC 2998. In addition, the GI50 with HCT-116, in the test with HT-29, with MOLT-4, in the test with NCI-H522, in the test with OVCAR-4 and in the test with OVCAR-5 was > 100 µM (inactive) in each case. For the same compound, the GI50 with OVCAR-8, with SF-295, in the test with SNB-75, with TK-10, in the test with UACC-257 and with UO-31 was > 100 µM (inactive) each time.

Consider `COc1ccc(/C=C2\CCC(C)/C(=C\c3ccc(OC)c(OC)c3)C2=O)cc1OC` (stereo not given), for which the GI50 in the test with 786-0 was 5.11 µM (inactive); in the test with ACHN, 4.79 µM (inactive); in the test with CCRF-CEM it was 2.11 µM (inactive); in the test on COLO 205, 8.39 µM (inactive); in the test on DU-145, 3.73 µM (inactive); in the test on HCT-116, 3.78 µM (inactive). The GI50 in the test on HT-29 is 4.38 µM (inactive); in the test with MDA-MB-231, 7.8 µM (inactive); with MOLT-4, 3.23 µM (inactive); in the test on OVCAR-5, 3.59 µM (inactive); in the test with OVCAR-8, 3.76 µM (inactive); in the test with SF-295, 5.36 µM (inactive). The figures for the GI50 with TK-10, in the test on UACC-257 and in the test on UO-31 were 2.61 µM (inactive), 2.88 µM (inactive) and 8.45 µM (inactive), respectively.

As for `CC1CC(C)C(C(O)CC2CC(=O)N(c3ccccc3)C(=O)C2)C(O)C1` (stereo not given), the GI50 with 786-0, in the test on A549, in the test on ACHN, in the test on CCRF-CEM, in the test with COLO 205 and in the test with HCC 2998 was > 100 µM (inactive) in each case. Also, the GI50 with HCT-116, in the test on HT-29, in the test on MOLT-4, with NCI-H522, with OVCAR-4 and in the test with OVCAR-5 was > 100 µM (inactive) throughout. Besides, the GI50 with OVCAR-8, with SF-295, in the test with SNB-75, in the test on TK-10, in the test on UACC-257 and with UO-31 was > 100 µM (inactive) each time.

Turning to `COc1ccc(O)c(C#N)c1C#N`, the GI50 with 786-0, in the test with A549, in the test on ACHN, in the test with CCRF-CEM, in the test on COLO 205 and in the test with HCC 2998 was > 100 µM (inactive) in each case. For the same compound, the GI50 with HCT-116, in the test with HT-29, in the test on MOLT-4, in the test with NCI-H522, in the test on OVCAR-4 and in the test with OVCAR-5 was > 100 µM (inactive) each time. Also, the GI50 in the test with OVCAR-8, in the test with SF-295, in the test with SNB-75, in the test with TK-10, with UACC-257 and in the test with UO-31 was > 100 µM (inactive) throughout.

Values taken from ChEMBL document CHEMBL1201862, “PubChem BioAssay data set” (2004).
